Data reported in patent US20260131009A1, “BIFUNCTIONAL PI3K-ALPHA INHIBITORS AND USES THEREOF” (Relay Therapeutics, Inc., priority 2021, published 2026).
pIC50: −log10 of the molar value.

Experiments:
[1] = molecular target: PI3Kα (Homo sapiens, UniProt P42336, H1047R); test: ADP-Glo IC50 assay; format: biochemical; settings: class symbols; key not given
[2] = system: MCF10A; test: MCF10A IC50 assay; format: cell-based; settings: Homo sapiens, MCF-10A; class symbols; key not given
Procedure, shortened: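 MCF10A cells overexpressing hotspot PIK3CA mutations were seeded at 5,000 per well in supplemented DMEM/F12 and adhered overnight (37 °C, 5% CO₂). Compounds were added acoustically as 12-dose 1:3 series, in duplicate, for 2 hours. Cells were lysed 60 min, then incubated 4 hours at room temperature with CisBio phospho-AKT (Ser473) HTRF antibodies and read on an Envision 2105. IC₅₀ for AKT phosphorylation came from Genedata software and was reported as binned categories.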

Sequence of PI3Kα (P42336 whole entry H1047R): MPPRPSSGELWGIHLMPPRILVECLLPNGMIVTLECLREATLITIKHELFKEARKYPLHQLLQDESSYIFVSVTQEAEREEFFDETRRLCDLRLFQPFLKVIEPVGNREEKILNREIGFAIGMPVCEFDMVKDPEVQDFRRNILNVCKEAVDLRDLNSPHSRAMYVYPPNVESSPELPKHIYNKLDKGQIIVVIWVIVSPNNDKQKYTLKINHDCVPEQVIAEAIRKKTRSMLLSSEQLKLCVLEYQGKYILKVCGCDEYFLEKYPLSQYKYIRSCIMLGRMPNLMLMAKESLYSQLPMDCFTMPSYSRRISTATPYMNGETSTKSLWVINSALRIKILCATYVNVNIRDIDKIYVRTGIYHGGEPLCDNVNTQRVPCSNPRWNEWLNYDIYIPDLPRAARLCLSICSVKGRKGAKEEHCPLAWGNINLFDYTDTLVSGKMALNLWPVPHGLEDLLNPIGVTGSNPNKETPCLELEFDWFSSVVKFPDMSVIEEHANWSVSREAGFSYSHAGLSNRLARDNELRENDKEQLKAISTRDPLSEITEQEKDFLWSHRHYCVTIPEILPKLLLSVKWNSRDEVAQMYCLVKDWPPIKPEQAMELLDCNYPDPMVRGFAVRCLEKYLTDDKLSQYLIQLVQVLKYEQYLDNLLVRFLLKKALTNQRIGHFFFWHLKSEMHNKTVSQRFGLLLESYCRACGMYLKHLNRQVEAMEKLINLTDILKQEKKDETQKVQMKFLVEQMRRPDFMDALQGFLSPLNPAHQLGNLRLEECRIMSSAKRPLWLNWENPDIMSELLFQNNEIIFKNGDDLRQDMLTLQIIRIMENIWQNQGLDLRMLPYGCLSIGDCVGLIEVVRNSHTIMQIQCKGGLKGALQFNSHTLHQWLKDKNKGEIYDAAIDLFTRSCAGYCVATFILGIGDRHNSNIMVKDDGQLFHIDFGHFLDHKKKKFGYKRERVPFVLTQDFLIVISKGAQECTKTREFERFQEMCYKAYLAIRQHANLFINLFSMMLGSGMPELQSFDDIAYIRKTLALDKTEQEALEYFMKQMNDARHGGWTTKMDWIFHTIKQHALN
Sequence of PI3Kα (P27986 whole entry partner): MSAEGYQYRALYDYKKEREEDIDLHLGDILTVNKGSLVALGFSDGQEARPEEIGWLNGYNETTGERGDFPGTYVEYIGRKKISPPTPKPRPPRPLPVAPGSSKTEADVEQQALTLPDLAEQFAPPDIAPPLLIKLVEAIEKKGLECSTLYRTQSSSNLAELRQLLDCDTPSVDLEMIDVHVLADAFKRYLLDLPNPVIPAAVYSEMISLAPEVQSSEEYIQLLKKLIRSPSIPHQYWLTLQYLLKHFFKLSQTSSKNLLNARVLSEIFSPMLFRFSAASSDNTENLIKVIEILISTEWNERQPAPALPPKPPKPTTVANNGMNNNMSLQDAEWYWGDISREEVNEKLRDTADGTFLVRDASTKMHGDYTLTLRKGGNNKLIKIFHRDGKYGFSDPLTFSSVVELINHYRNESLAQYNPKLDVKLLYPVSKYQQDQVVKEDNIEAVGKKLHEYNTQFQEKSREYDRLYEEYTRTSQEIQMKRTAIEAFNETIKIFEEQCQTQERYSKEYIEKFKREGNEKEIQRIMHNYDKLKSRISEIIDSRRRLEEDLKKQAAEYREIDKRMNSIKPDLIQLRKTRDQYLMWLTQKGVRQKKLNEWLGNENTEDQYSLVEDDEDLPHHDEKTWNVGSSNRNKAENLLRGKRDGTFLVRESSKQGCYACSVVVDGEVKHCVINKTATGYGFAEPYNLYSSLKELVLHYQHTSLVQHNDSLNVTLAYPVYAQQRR

Cc1ccccc1Nc1ncc(C(=O)NCCCCCCCCCC(N)=O)cc1NC(=O)c1csc2ccccc12 [Example I-24] showed a pIC50 [1] of over 7.00 and a pIC50 [2] of 5.30 to 6.00.

O=C(O)CCCCCCCCCNC(=O)c1cnc(Nc2cc(F)ccc2Cl)c(NC(=O)c2csc3ccccc23)c1 [Example I-72] gave a pIC50 [1] of over 7.00 and a pIC50 [2] of 4.44 to 5.00.

For Cc1ccccc1Nc1ncc(C(=O)NCCCCCC(=O)NCc2ccc3c(c2)CN(C2CCC(=O)NC2=O)C3=O)cc1NC(=O)c1csc2ccccc12 (centres unmarked) [Example I-9], the pIC50 [1] was 6.30 to 7.00 and the pIC50 [2] was 4.44 to 5.00.

O=C1CCC(N2Cc3cc(C(=O)NCCCCCCCCCNC(=O)c4cc(NC(=O)c5cc(F)cc(C(F)(F)F)c5)c5c(c4)C(=O)N[C@H]5c4cc(F)ccc4Cl)ccc3C2=O)C(=O)N1 (some centres unmarked) [Example I-67] was tested, and the pIC50 [1] was over 7.00 and the pIC50 [2] was 4.44 to 5.00.

Cc1ccccc1Nc1ncc(C(=O)NCCCCCCCCCC(=O)NCc2ccc3c(c2)CN(C2CCC(=O)NC2=O)C3=O)cc1NC(=O)c1csc2ccccc12 (centres unmarked) [Example I-3] showed a pIC50 [1] of 6.30 to 7.00 and a pIC50 [2] of 4.44 to 5.00.

For Cc1ccccc1Nc1ncc(C(=O)NCCCCCNc2cccc3c2C(=O)N(C2CCC(=O)NC2=O)C3=O)cc1NC(=O)c1csc2ccccc12 (centres unmarked) [Example I-22], the pIC50 [1] was 6.30 to 7.00 and the pIC50 [2] was 4.44 to 5.00.

Cc1ccccc1Nc1ncc(C(=O)NCCCCCCCC(=O)NCc2ccc3c(c2)CN(C2CCC(=O)NC2=O)C3=O)cc1NC(=O)c1csc2ccccc12 (centres unmarked) [Example I-6] gave a pIC50 [1] of 6.30 to 7.00 and a pIC50 [2] of 4.44 to 5.00.

Work on Cc1ccccc1Nc1ncc(C(=O)NCCCCCCCCCC(=O)N[C@H](C(=O)N2C[C@H](O)C[C@H]2C(=O)N[C@@H](C)c2ccc(-c3scnc3C)cc2)C(C)(C)C)cc1NC(=O)c1csc2ccccc12 [Example 1-7] yielded a pIC50 [1] of 6.30 to 7.00 and a pIC50 [2] of 4.44 to 5.00.

In the case of Cc1ccccc1Nc1ncc(C(=O)NCCCCCCCCCNc2cccc3c2C(=O)N(C2CCC(=O)NC2=O)C3=O)cc1NC(=O)c1csc2ccccc12 (centres unmarked) [Example I-31], the pIC50 [1] was 6.30 to 7.00 and the pIC50 [2] was 4.44 to 5.00.

Cc1cc(Br)c2oc(N3CCN(C(=O)CCCCCCCCCNC(=O)c4cnc(Nc5ccccc5C)c(NC(=O)c5csc6ccccc56)c4)CC3)cc(=O)c2c1 [Example I-82] showed a pIC50 [1] of 6.30 to 7.00 and a pIC50 [2] of 4.44 to 5.00.

Cc1ccccc1Nc1ncc(C(=O)NCCOCCOCCOCCOCCC(=O)N[C@H](C(=O)N2C[C@H](O)C[C@H]2C(=O)N[C@@H](C)c2ccc(-c3scnc3C)cc2)C(C)(C)C)cc1NC(=O)c1csc2ccccc12 [Example I-13] gave a pIC50 [1] of 5.00 to 6.00 and a pIC50 [2] of 4.44 to 5.00.

With Cc1ccccc1Nc1ncc(C(=O)NCCCCCCCCCNC(=O)c2ccc3c(c2)CN(C2CCC(=O)NC2=O)C3=O)cc1NC(=O)c1csc2ccccc12 (centres unmarked) [Example I-2] the pIC50 [1] was 6.00 to 6.30 and the pIC50 [2] was 4.44 to 5.00.

With Cc1cc(Br)c2oc(N3CCN(C(=O)CCCCCCCCNC(=O)c4cnc(Nc5ccccc5C)c(NC(=O)c5csc6ccccc56)c4)CC3)cc(=O)c2c1 [Example I-78] the pIC50 [1] was 6.30 to 7.00 and the pIC50 [2] was 4.44 to 5.00.

With Cc1cc([C@H](C)Nc2ccccc2C(=O)O)c2oc(N3CCN(C(=O)CCCCCCCNc4cccc5c4C(=O)N(C4CCC(=O)NC4=O)C5=O)CC3)cc(=O)c2c1 (some centres unmarked) [Example I-136] the pIC50 [1] was 5.00 to 6.00.

Work on Cc1ncsc1-c1ccc(CNC(=O)[C@@H]2C[C@@H](O)CN2C(=O)[C@@H](NC(=O)CCCCCCCCCNC(=O)c2cc(NC(=O)c3cc(F)cc(C(F)(F)F)c3)c3c(c2)C(=O)N[C@H]3c2cc(F)ccc2Cl)C(C)(C)C)cc1 [Example I-71] yielded a pIC50 [1] of 6.00 to 6.30.

With Cc1ccccc1Nc1ncc(C(=O)NCCCCCCCCNC(=O)c2ccc3c(c2)CN(C2CCC(=O)NC2=O)C3=O)cc1NC(=O)c1csc2ccccc12 (centres unmarked) [Example I-21] the pIC50 [1] was 6.30 to 7.00.

O=C1CCC(N2Cc3cc(C#CCN4CCC(NC(=O)c5cnc(Nc6cc(F)ccc6Cl)c(NC(=O)c6csc7ccccc67)c5)CC4)ccc3C2=O)C(=O)N1 (centres unmarked) [Example I-84] gave a pIC50 [1] of 5.00 to 6.00.

Cc1cc([C@@H](C)Nc2ccccc2C(=O)O)c2oc(N3CCN(C(=O)CCNc4ccc5c(c4)C(=O)N(C4CCC(=O)NC4=O)C5=O)CC3)cc(=O)c2c1 (some centres unmarked) [Example I-140] showed a pIC50 [1] of 6.00 to 6.30.

In the case of O=C1CCC(N2C(=O)c3ccc(NCCCCCNC(=O)c4cnc(Nc5cc(F)ccc5Cl)c(NC(=O)c5csc6ccccc56)c4)cc3C2=O)C(=O)N1 (centres unmarked) [Example I-63], the pIC50 [1] was 6.30 to 7.00.

With O=C1CCC(N2Cc3cc(C(=O)NCCCCCCCCCCNC(=O)c4cc(NC(=O)c5cccc(C(F)(F)F)c5)c5c(c4)C(=O)N[C@@H]5c4cc(F)ccc4Cl)ccc3C2=O)C(=O)N1 (some centres unmarked) [Example I-154] the pIC50 [1] was 5.00 to 6.00.

In the case of O=C1CCC(N2Cc3cc(C(=O)NCCCCCCCCCNC(=O)c4cc(NC(=O)c5csc6ccccc56)c5c(c4)C(=O)NC5c4cc(F)ccc4Cl)ccc3C2=O)C(=O)N1 (centres unmarked) [Example I-159], the pIC50 [1] was over 7.00.

Compound O=C1CCC(N2C(=O)c3ccc(NCCCNC(=O)c4cc(NC(=O)c5cc(F)cc(C(F)(F)F)c5)c5c(c4)C(=O)N[C@H]5c4cc(F)ccc4Cl)cc3C2=O)C(=O)N1 (some centres unmarked) [Example I-98] has a pIC50 [1] of over 7.00.

Work on Cc1ccccc1Nc1ncc(C(=O)NCCOCCOCCOCCC(=O)N[C@H](C(=O)N2C[C@H](O)C[C@H]2C(=O)NCc2ccc(-c3scnc3C)cc2)C(C)(C)C)cc1NC(=O)c1csc2ccccc12 [Example I-35] yielded a pIC50 [1] of 5.00 to 6.00.

O=C1CCC(N2Cc3cc(C(=O)NCCCCCCCCCCNC(=O)c4cc(NC(=O)c5cccc(C(F)(F)F)c5)c5c(c4)C(=O)N[C@H]5c4cc(F)ccc4Cl)ccc3C2=O)C(=O)N1 (some centres unmarked) [Example I-152] gave a pIC50 [1] of 6.30 to 7.00.

In the case of Cc1ncsc1-c1ccc([C@H](C)NC(=O)[C@@H]2C[C@@H](O)CN2C(=O)[C@@H](NC(=O)CCCCCCCCCNC(=O)c2cc(NC(=O)c3nsc4ccccc34)c3n2CC(=O)N[C@H]3c2cc(F)ccc2Cl)C(C)(C)C)cc1 [Example I-113], the pIC50 [1] was 6.30 to 7.00.

Work on NC(=O)CCCCCCCCCNC(=O)c1cc(NC(=O)c2cc(F)cc(C(F)(F)F)c2)c2c(c1)C(=O)N[C@H]2c1cc(F)ccc1Cl [Example I-79] yielded a pIC50 [1] of 5.00 to 6.00.

Cc1ccccc1Nc1ncc(C(=O)NCCCCNc2cccc3c2C(=O)N(C2CCC(=O)NC2=O)C3=O)cc1NC(=O)c1csc2ccccc12 (centres unmarked) [Example I-49] showed a pIC50 [1] of 6.30 to 7.00.

In the case of O=C(CCCCCCCNC(=O)c1cc(NC(=O)c2cc(F)cc(C(F)(F)F)c2)c2c(c1)C(=O)N[C@H]2c1cc(F)ccc1Cl)NCc1ccc2c(c1)CN(C1CCC(=O)NC1=O)C2=O (some centres unmarked) [Example I-93], the pIC50 [1] was over 7.00.

Work on Cc1ccccc1Nc1ncc(C(=O)NCCCC#Cc2ccc3c(c2)CN(C2CCC(=O)NC2=O)C3=O)cc1NC(=O)c1csc2ccccc12 (centres unmarked) [Example I-44] yielded a pIC50 [1] of 6.30 to 7.00.

O=C1CCC(N2C(=O)c3ccc(NCCCNC(=O)c4cnc(Nc5cc(F)ccc5Cl)c(NC(=O)c5csc6ccccc56)c4)cc3C2=O)C(=O)N1 (centres unmarked) [Example I-99] gave a pIC50 [1] of 6.30 to 7.00.

In the case of Cc1cc([C@H](C)Nc2ccccc2C(=O)O)c2oc(N3CCN(C(=O)CCOCCNc4cccc5c4C(=O)N(C4CCC(=O)NC4=O)C5=O)CC3)cc(=O)c2c1 (some centres unmarked) [Example I-148], the pIC50 [1] was 5.00 to 6.00.

Work on Cc1ccccc1Nc1ncc(C(=O)NCCOCCOCCOCCOCCC(=O)NCc2ccc3c(c2)CN(C2CCC(=O)NC2=O)C3=O)cc1NC(=O)c1csc2ccccc12 (centres unmarked) [Example I-47] yielded a pIC50 [1] of 5.00 to 6.00.

For Cc1ccccc1Nc1ncc(C(=O)NCCCNc2cccc3c2C(=O)N(C2CCC(=O)NC2=O)C3=O)cc1NC(=O)c1csc2ccccc12 (centres unmarked) [Example I-51], the pIC50 [1] was 6.30 to 7.00.

Cc1ccccc1Nc1ncc(C(=O)NCCOCCOCCOCCOCCC(=O)N[C@H](C(=O)N2C[C@H](O)C[C@H]2C(=O)NCc2ccc(-c3scnc3C)cc2)C(C)(C)C)cc1NC(=O)c1csc2ccccc12 [Example I-14] was tested, and the pIC50 [1] was 6.00 to 6.30.

Compound Cc1ccccc1Nc1ncc(C(=O)NCCOCCOCCOCCOCCOCCOCCC(=O)NCc2ccc3c(c2)CN(C2CCC(=O)NC2=O)C3=O)cc1NC(=O)c1csc2ccccc12 (centres unmarked) [Example I-52] has a pIC50 [1] of 4.00 to 5.00.

Cc1cc([C@H](C)Nc2ccccc2C(=O)O)c2oc(N3CCN(C(=O)CCCNc4cccc5c4C(=O)N(C4CCC(=O)NC4=O)C5=O)CC3)cc(=O)c2c1 (some centres unmarked) [Example I-133] gave a pIC50 [1] of 5.00 to 6.00.

Cc1ccccc1Nc1ncc(C(=O)NCCCCCCC(=O)N[C@H](C(=O)N2C[C@H](O)C[C@H]2C(=O)NCc2ccc(-c3scnc3C)cc2)C(C)(C)C)cc1NC(=O)c1csc2ccccc12 [Example I-15] gave a pIC50 [1] of 6.30 to 7.00.

For NC(=O)CCCCCCCCCNC(=O)c1cc(NC(=O)c2nsc3ccccc23)c2n1CC(=O)N[C@H]2c1cc(F)ccc1Cl [Example I-104], the pIC50 [1] was over 7.00.

With Cc1ccccc1Nc1ncc(C(=O)NCCCCCCCNc2cccc3c2C(=O)N(C2CCC(=O)NC2=O)C3=O)cc1NC(=O)c1csc2ccccc12 (centres unmarked) [Example I-42] the pIC50 [1] was 6.30 to 7.00.

O=C1CCC(N2Cc3cc(C(=O)NCCOCCOCCOCCOCCOCCOCCOCCOCCOCCOCCOCCOCCNC(=O)c4cc(NC(=O)c5cc(F)cc(C(F)(F)F)c5)c5c(c4)C(=O)N[C@H]5c4cc(F)ccc4Cl)ccc3C2=O)C(=O)N1 (some centres unmarked) [Example I-157] was tested, and the pIC50 [1] was 6.00 to 6.30.

With Cc1cc([C@@H](C)Nc2ccccc2C(=O)O)c2oc(N3CCN(C(=O)CCCNc4cccc5c4C(=O)N(C4CCC(=O)NC4=O)C5=O)CC3)cc(=O)c2c1 (some centres unmarked) [Example I-141] the pIC50 [1] was 6.00 to 6.30.

In the case of Cc1ccccc1Nc1ncc(C(=O)NCCCCCCCC(=O)N[C@H](C(=O)N2C[C@H](O)C[C@H]2C(=O)NCc2ccc(-c3scnc3C)cc2)C(C)(C)C)cc1NC(=O)c1csc2ccccc12 [Example I-18], the pIC50 [1] was 6.30 to 7.00.

In the case of O=C1CCC(N2C(=O)c3ccc(NCCCCNC(=O)c4cc(NC(=O)c5cc(F)cc(C(F)(F)F)c5)c5c(c4)C(=O)N[C@@H]5c4cc(F)ccc4Cl)cc3C2=O)C(=O)N1 (some centres unmarked) [Example I-94], the pIC50 [1] was 6.00 to 6.30.

With Cc1ccccc1Nc1ncc(C(=O)NCCOCCOCCOCCOCCOCCOCCC(=O)N[C@H](C(=O)N2C[C@H](O)C[C@H]2C(=O)NCc2ccc(-c3scnc3C)cc2)C(C)(C)C)cc1NC(=O)c1csc2ccccc12 [Example I-32] the pIC50 [1] was 5.00 to 6.00.

Work on Cc1cc([C@H](C)Nc2ccccc2)c2oc(N3CCN(C(=O)CCOCCOCCNC(=O)c4cnc(Nc5ccccc5C)c(NC(=O)c5csc6ccccc56)c4)CC3)cc(=O)c2c1 [Example I-112] yielded a pIC50 [1] of 5.00 to 6.00.

With Cc1cc([C@@H](C)Nc2ccccc2C(=O)O)c2oc(N3CCN(C(=O)CCCCCNc4cccc5c4C(=O)N(C4CCC(=O)NC4=O)C5=O)CC3)cc(=O)c2c1 (some centres unmarked) [Example I-142] the pIC50 [1] was 6.00 to 6.30.
